Measured values as given in patent US11197933B2, “Polysubunit opioid prodrugs resistant to overdose and abuse” (Elysium Therapeutics, Inc., priority 2017, dated 2021).

How the values were obtained:
trypsin = target: T1, trypsin (Bos taurus, UniProt P00760); experiment: Inhibition of trypsin-catalyzed hydrolysis of BANA (percent BANA remaining vs. time); assay type: biochemical; settings: pH 7.4, 37° C.; for Ability to inhibit trypsin (result in words): increasing concentrations, BANA substrate
T1 construct: gene PRSS1
T1 sequence (P00760 24-246): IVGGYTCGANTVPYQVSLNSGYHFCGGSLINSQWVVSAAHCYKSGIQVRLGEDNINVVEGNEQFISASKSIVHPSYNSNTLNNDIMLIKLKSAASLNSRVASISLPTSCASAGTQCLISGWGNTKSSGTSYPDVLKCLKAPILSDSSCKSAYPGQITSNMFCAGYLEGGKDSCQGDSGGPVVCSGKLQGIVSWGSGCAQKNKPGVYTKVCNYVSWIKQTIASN
Procedure: This example describes in vitro experiments with a compound of the disclosure to provide a mechanism of overdose protection.
The effect of increasing concentrations of compounds II-D-11, II-D-23, II-D-71c and II-D-71b on the rate and extent of the trypsin-catalyzed hydrolysis of a commercially available trypsin substrate Nα-Benzoyl-L-arginine 4-nitroanilide hydrochloride (BANA) was evaluated in the presence of trypsin (2,000 BAEE activity) in a pH 7.4 phosphate buffer at 37° C. in vitro. Both buffer solution alone (i.e. no trypsin) and trypsin containing buffer solution (i.e. no test compounds) controls were run contemporaneously.

[1] = Hydrocodone and naltrexone release from II-D-71c-NTX in 0.5M aqueous NaOH at 60° C. (tampering); assay type: physicochemical; settings: for Percent HC Released / Percent NTX Released: 60° C. incubation in 0.5M aqueous NaOH
Procedure: H-D-71c-NTX was incubated in a strongly basic solution of 0.5M aqueous sodium hydroxide at 60° C. for 300 minutes. The solution was analyzed for the presence of both hydrocodone and naltrexone at specified time points using LC/MS analysis. […] The data from this study is presented graphically in FIG. 2.

In the case of COc1ccc2c3c1OC1C(OC(=O)N4CCC(C(=O)NCCCCC(NC(C)=O)C(=O)NCCOc5ccc(C(=O)Oc6ccc7cc(C(=N)N)ccc7c6)cc5)CC4CNC(=O)C(CCCNC(=N)N)NC(=O)CNC(C)=O)=CCC4C(C2)N(C)CCC314 [II-D-11], the “Percent BANA remaining” value (trypsin; 1 uM compound, 2 minutes) was 100%, the “Percent BANA remaining” value (trypsin; 1 uM compound, 13 minutes) was 39% and the “Percent BANA remaining” value (trypsin; 1 uM compound, 24 minutes) was 0%. The “Percent BANA remaining” value (trypsin; 1 uM compound, 80 minutes) was 0%, the “Percent BANA remaining” value (trypsin; 1 uM compound, 102 minutes) was 0% and the “Percent BANA remaining” value (trypsin; 1 uM compound, 119 minutes) was 0%. The “Percent BANA remaining” value (trypsin; 1 uM compound, 234 minutes) was 0%, the “Percent BANA remaining” value (trypsin; 10 uM compound, 2 minutes) was 100% and the “Percent BANA remaining” value (trypsin; 10 uM compound, 13 minutes) was 98%. The “Percent BANA remaining” value (trypsin; 10 uM compound, 24 minutes) was 96%, the “Percent BANA remaining” value (trypsin; 10 uM compound, 80 minutes) was 94% and the “Percent BANA remaining” value (trypsin; 10 uM compound, 102 minutes) was 93%. For the same compound, the “Percent BANA remaining” value (trypsin; 10 uM compound, 119 minutes) was 94%, the “Percent BANA remaining” value (trypsin; 10 uM compound, 234 minutes) was 87% and the “Percent BANA remaining” value (trypsin; 100 uM compound, 2 minutes) was 100%. For the same compound, the “Percent BANA remaining” value (trypsin; 100 uM compound, 13 minutes) was 98%, the “Percent BANA remaining” value (trypsin; 100 uM compound, 24 minutes) was 100% and the “Percent BANA remaining” value (trypsin; 100 uM compound, 80 minutes) was 99%. The “Percent BANA remaining” value (trypsin; 100 uM compound, 102 minutes) was 99%, the “Percent BANA remaining” value (trypsin; 100 uM compound, 119 minutes) was 99% and the “Percent BANA remaining” value (trypsin; 100 uM compound, 234 minutes) was 99%. For the same compound, the “Percent BANA remaining” value (trypsin; 1 mM compound, 2 minutes) was 100%, the “Percent BANA remaining” value (trypsin; 1 mM compound, 13 minutes) was 100% and the “Percent BANA remaining” value (trypsin; 1 mM compound, 24 minutes) was 99%. For the same compound, the “Percent BANA remaining” value (trypsin; 1 mM compound, 80 minutes) was 100%, the “Percent BANA remaining” value (trypsin; 1 mM compound, 102 minutes) was 100% and the “Percent BANA remaining” value (trypsin; 1 mM compound, 119 minutes) was 100%. For the same compound, the “Percent BANA remaining” value (trypsin; 1 mM compound, 234 minutes) was 100% and the “Ability to inhibit trypsin (result in words)” value (trypsin) was “progressively inhibit trypsin in a concentration dependent manner”.
In the case of COc1ccc2c3c1OC1C(OC(=O)N4CCC(C(=O)NCCCCC(NC(=O)OCc5ccccc5)C(=O)NCCOc5ccc(C(=O)Oc6ccc7cc(C(=N)N)ccc7c6)cc5)CC4CNC(=O)C(CCCNC(=N)N)NC(=O)CNC(C)=O)=CCC4C(C2)N(C)CCC314 [II-D-23], the “Percent BANA remaining” value (trypsin; 1 uM compound, 2 minutes) was 100%, the “Percent BANA remaining” value (trypsin; 1 uM compound, 14 minutes) was 20% and the “Percent BANA remaining” value (trypsin; 1 uM compound, 24 minutes) was 11%. For the same compound, the “Percent BANA remaining” value (trypsin; 1 uM compound, 32 minutes) was 0%, the “Percent BANA remaining” value (trypsin; 1 uM compound, 70 minutes) was 0% and the “Percent BANA remaining” value (trypsin; 1 uM compound, 100 minutes) was 0%. For the same compound, the “Percent BANA remaining” value (trypsin; 1 uM compound, 145 minutes) was 0%, the “Percent BANA remaining” value (trypsin; 1 uM compound, 156 minutes) was 0% and the “Percent BANA remaining” value (trypsin; 1 uM compound, 247 minutes) was 0%. For the same compound, the “Percent BANA remaining” value (trypsin; 10 uM compound, 2 minutes) was 100%, the “Percent BANA remaining” value (trypsin; 10 uM compound, 14 minutes) was 98% and the “Percent BANA remaining” value (trypsin; 10 uM compound, 24 minutes) was 96%. For the same compound, the “Percent BANA remaining” value (trypsin; 10 uM compound, 32 minutes) was 98%, the “Percent BANA remaining” value (trypsin; 10 uM compound, 70 minutes) was 97% and the “Percent BANA remaining” value (trypsin; 10 uM compound, 100 minutes) was 95%. The “Percent BANA remaining” value (trypsin; 10 uM compound, 145 minutes) was 96%, the “Percent BANA remaining” value (trypsin; 10 uM compound, 156 minutes) was 96% and the “Percent BANA remaining” value (trypsin; 10 uM compound, 247 minutes) was 93%. For the same compound, the “Percent BANA remaining” value (trypsin; 100 uM compound, 2 minutes) was 100%, the “Percent BANA remaining” value (trypsin; 100 uM compound, 14 minutes) was 99% and the “Percent BANA remaining” value (trypsin; 100 uM compound, 24 minutes) was 100%. The “Percent BANA remaining” value (trypsin; 100 uM compound, 32 minutes) was 100%, the “Percent BANA remaining” value (trypsin; 100 uM compound, 70 minutes) was 100% and the “Percent BANA remaining” value (trypsin; 100 uM compound, 100 minutes) was 100%. The “Percent BANA remaining” value (trypsin; 100 uM compound, 145 minutes) was 100%, the “Percent BANA remaining” value (trypsin; 100 uM compound, 156 minutes) was 100% and the “Percent BANA remaining” value (trypsin; 100 uM compound, 247 minutes) was 100%. The “Percent BANA remaining” value (trypsin; 1 mM compound, 2 minutes) was 100%, the “Percent BANA remaining” value (trypsin; 1 mM compound, 14 minutes) was 99% and the “Percent BANA remaining” value (trypsin; 1 mM compound, 24 minutes) was 98%. The “Percent BANA remaining” value (trypsin; 1 mM compound, 32 minutes) was 99%, the “Percent BANA remaining” value (trypsin; 1 mM compound, 70 minutes) was 99% and the “Percent BANA remaining” value (trypsin; 1 mM compound, 100 minutes) was 98%. For the same compound, the “Percent BANA remaining” value (trypsin; 1 mM compound, 145 minutes) was 98%, the “Percent BANA remaining” value (trypsin; 1 mM compound, 156 minutes) was 97% and the “Percent BANA remaining” value (trypsin; 1 mM compound, 247 minutes) was 96%. For the same compound, the “Ability to inhibit trypsin (result in words)” value (trypsin) was “progressively inhibit trypsin in a concentration dependent manner”.
With COc1ccc2c3c1O[C@H]1C(OC(=O)N4CCC(C(=O)NCCCC[C@H](NC(=O)CCCN(C)C(=O)Oc5ccc6c7c5O[C@H]5C(=O)CC[C@@]8(O)[C@@H](C6)N(CC6CC6)CC[C@]758)C(=O)NCCNC(=O)Cc5ccc(OC(=O)c6ccc(NC(=N)N)cc6)cc5)CC4CNC(=O)[C@@H](CCCNC(=N)N)NC(=O)CNC(C)=O)=CC[C@H]4[C@@H](C2)N(C)CC[C@]314.O=C(O)C(F)(F)F.O=C(O)C(F)(F)F.O=C(O)C(F)(F)F.O=C(O)C(F)(F)F (stereo partly drawn) [II-D-71c-NTX] the “Release of hydrocodone and naltrexone on tampering (result in words)” value ([1]; 0.5M aqueous sodium hydroxide, 60° C., 300 minutes, LC/MS) was “release of the opioid agonist (e.g. hydrocodone) occurs concomitantly with the release of the opioid antagonist”, the “Percent HC Released” value ([1]; time 0 (minutes)) was 0% and the “Percent NTX Released” value ([1]; time 0 (minutes)) was 0%. For the same compound, the “Percent HC Released” value ([1]; time 5 (minutes)) was 2.52%, the “Percent NTX Released” value ([1]; time 5 (minutes)) was 1.44% and the “Percent HC Released” value ([1]; time 10 (minutes)) was 4.45%. The “Percent NTX Released” value ([1]; time 10 (minutes)) was 2.0%, the “Percent HC Released” value ([1]; time 15 (minutes)) was 6.27% and the “Percent NTX Released” value ([1]; time 15 (minutes)) was 2.95%. The “Percent HC Released” value ([1]; time 20 (minutes)) was 9.27%, the “Percent NTX Released” value ([1]; time 20 (minutes)) was 3.69% and the “Percent HC Released” value ([1]; time 30 (minutes)) was 13.99%. The “Percent NTX Released” value ([1]; time 30 (minutes)) was 6.47%, the “Percent HC Released” value ([1]; time 60 (minutes)) was 25.32% and the “Percent NTX Released” value ([1]; time 60 (minutes)) was 14.41%. The “Percent HC Released” value ([1]; time 120 (minutes)) was 37.9%, the “Percent NTX Released” value ([1]; time 120 (minutes)) was 37.81% and the “Percent HC Released” value ([1]; time 300 (minutes)) was 56.1%. The “Percent NTX Released” value ([1]; time 300 (minutes)) was 60.25%.
